Assay results reported in PubChem BioAssay (NCI).
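96-well plates; 48 h exposure; 5 concentrations. Endpoints by linear interpolation between flanking doses. Not reached: highest tested concentration assigned. Here, GI50 denotes the concentration required for 50% inhibition of growth. TGI is the concentration that stops growth completely.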

Experiments:
Experiment in all cases: NCI-60 cell line screen, 48 h
SF-539 CNS = tested on: SF-539 CNS
NCI-H226 lung = tested on: NCI-H226 lung
SW-620 colon = tested on: SW-620 colon
EKVX NSCLC = tested on: EKVX NSCLC
RXF 393 renal = tested on: RXF 393 renal
U251 CNS = tested on: U251 CNS
ACHN renal = tested on: ACHN renal
COLO 205 colon = tested on: COLO 205 colon
HCT-116 colon = tested on: HCT-116 colon
HOP-62 NSCLC = tested on: HOP-62 NSCLC

Structure (SMILES) | TGI (SF-539 CNS) [µM] | TGI (NCI-H226 lung) [µM] | TGI (SW-620 colon) [µM] | TGI (EKVX NSCLC) [µM] | TGI (RXF 393 renal) [µM] | TGI (U251 CNS) [µM] | TGI (ACHN renal) [µM] | GI50 (SF-539 CNS) [µM] | GI50 (COLO 205 colon) [µM] | TGI (COLO 205 colon) [µM] | GI50 (NCI-H226 lung) [µM] | GI50 (SW-620 colon) [µM] | GI50 (HCT-116 colon) [µM] | TGI (HCT-116 colon) [µM] | GI50 (EKVX NSCLC) [µM] | GI50 (RXF 393 renal) [µM] | GI50 (HOP-62 NSCLC) [nM] | TGI (HOP-62 NSCLC) [µM] | GI50 (U251 CNS) [µM] | GI50 (ACHN renal) [µM]
C=CC[P@@]1(=O)O[C@H](c2ccccc2)C(C)N1C(C)C (stereo not given in full) | > 100 | > 100 | > 100 | > 100 | > 100 | > 100 | > 100 |  |  |  |  |  |  |  |  |  |  |  |  | 
COc1c(O)cc2oc3cc(O)c(CC=C(C)C)c(O)c3c(=O)c2c1C/C=C(\C)CCC=C(C)C | 12 | 11.2 | 10.4 | 9.75 | 10.2 | 10.6 | 9.4 | 6.11 | 6.37 | 11.4 | 6.18 | 5.8 | 5.24 | 10.4 | 4.89 | 5.53 | 5660 | 10.1 | 5.89 | 4.98
COc1cc(-c2cc(C(=O)Nc3nc4ccccc4s3)nc3cc(-c4ccccc4)nn23)cc(OC)c1OC | 9.09 | > 100 |  | > 100 | 22.1 | 32.6 | > 100 | 1.31 |  |  | 27.5 |  | 4.51 | > 100 | 42.9 | 6.22 | 9870 | 27.2 | 5.14 | 45.7
O=C1C(c2ccc(Cl)cc2)=[N+]([O-])c2ccccc21 | 36 | 47 | 62.1 | 28.9 | 23 | 31.5 | 28.5 |  |  | 32.4 |  |  |  | 27.8 |  |  |  | 78.5 |  | 
COC(=O)C/C(C)=C/[C@@H](O)[C@H]1O[C@@H]2CC/C(Cl)=C/C/C=C(/C)[C@H](OC(C)=O)CC(=O)O[C@@H]1C2 | 7.95 | 11.8 | > 25 | 14.3 | 9.23 | 13.2 | 4.51 | 1.32 | 1.72 | 7.51 | 4.76 | 19.1 | 3.22 | 7.85 | 4.93 | 2.34 | 2500 | 7.17 | 4.55 | 1.16
CCN(Cc1ccc(F)cc1F)c1ccc(CO)c(Cl)c1 | 31.7 | 0.219 | > 45.6 |  | 14.5 | 18.8 | 38.3 | 16.1 | 3.31 | 9.24 | 0.0945 | 0.917 | 0.0861 | 12.5 |  | 2.26 | 1840 | 20.2 | 0.641 | 14.1
O=[N+]([O-])c1ccc2c(c1)OCCOCCOc1ccc([N+](=O)[O-])cc1OCCOCCO2 | > 100 | > 100 | > 100 | > 100 | > 100 | > 100 | > 100 |  |  | > 100 |  |  |  | > 100 |  |  |  | > 100 |  | 
CC1=CCP(C(F)(F)F)P(C(F)(F)F)C1 (stereo not given) | > 100 | > 100 | > 100 | > 100 | 58.3 | > 100 | > 100 |  |  | > 100 |  |  |  | > 100 |  |  |  | > 100 |  | 
COc1ccc(/C=C/C(=O)/C=C(/C=C/c2ccc(OC)c(OC)c2)OB(F)F)cc1OC | 3.63 | 6.88 | 2.33 | > 100 | 1.31 | 2.31 | 1.98 | 1.18 | 0.37 | 1.57 | 2 | 0.373 | 0.321 | 1.09 | 1.04 | 0.34 | 2460 | 7.05 | 0.807 | 0.352
N#C[C@]12CC3(CC[C@H]1CC1(C2)OCCO1)OCCO3 | > 100 | > 100 | > 100 |  | > 100 | > 100 | > 100 |  |  | > 100 |  |  |  | > 100 |  |  |  | > 100 |  | 
Cc1cc(N(CCC#N)CCC#N)ccc1N=Nc1ccccc1[N+](=O)[O-] | > 100 | > 100 | > 100 | > 100 | > 100 | > 100 | > 100 |  |  | > 100 |  |  |  |  |  |  |  | > 100 |  | 
Cc1ccc(C)c(NC(=O)CC2C(=O)Nc3ccccc3S2(=O)=O)c1 (stereo not given) | 82.5 | > 100 | > 100 | > 100 | 49.6 | > 100 | > 100 |  |  |  |  |  |  | > 100 |  |  |  |  |  | 
COC(=O)C(=O)C(C(=O)C(=O)Nc1ccc([N+](=O)[O-])cc1[N+](=O)[O-])c1nc2ccc([N+](=O)[O-])cc2[nH]c1=O (stereo not given) |  | > 100 | > 100 | > 100 | > 100 | > 100 | > 100 |  |  | > 100 |  |  |  | > 100 |  |  |  | > 100 |  | 
COc1ccc(/C=C\c2cc(OC)c(OC)c(OC)c2)cc1NC(=O)[C@@H](N)CO | 0.0649 | > 100 | > 100 |  | 26.7 | > 100 | > 100 | 0.0145 | < 0.01 | 0.0153 | 0.0287 | 0.027 | 0.0176 | > 100 |  | < 0.01 | 26.7 | > 100 | 0.0165 | 0.0268
O=C(CCl)Nc1ccccc1SCc1cc(Cl)cc2c1OCOC2 | 28.7 | 35.6 | 17.1 |  | 20.9 | 31.3 | 23.8 | 15.3 | 17.3 | 35.5 | 11.2 | 3.73 | 4.64 | 16.8 |  | 7.24 | 19800 | 41.5 | 16.1 | 10.6
CC(C)(C)C(=O)Nc1ccccc1Br |  | > 100 | > 100 | > 100 | > 100 | > 100 | > 100 |  |  | > 100 |  |  |  | > 100 |  |  |  | > 100 |  | 
CN(C)CCCNC(=O)c1cc(NC(=O)c2cc(NC(=O)CCCN3c4ccccc4C=Cc4ccccc43)cn2C)cn1C | 33.5 | > 100 | > 100 | 71.3 | 85 |  | 33.6 | 5.57 |  |  | 19.4 | 3.96 | 3.35 | > 100 | 17 | 8.61 | 10200 | > 100 |  | 14.7
Cc1ccc(C)c(-n2c(-c3ccc(Br)cc3)csc2=NC(=O)c2ccccc2F)c1 | > 100 | > 100 | > 100 | > 100 | > 100 | > 100 |  | > 100 | > 100 | > 100 | > 100 | > 100 | 3.1 | > 100 | > 100 | > 100 | > 100000 | > 100 | > 100 | 
Nc1ccc(CCN2CCN(c3cccc(C(F)(F)F)c3)CC2)cc1 | > 100 | > 100 |  | > 100 | > 100 | > 100 | > 100 |  |  | > 100 |  |  |  | > 100 |  |  |  | > 100 |  | 
OCc1ccc(N(Cc2ccc(F)cc2)C2CCC2)cc1Cl | 31.3 | 0.193 | 16.8 |  | 16.6 | 16.2 | 26.4 | 16.7 | 3.5 | 11.5 | 0.0569 | 0.744 | 0.115 | 3.73 |  | 3.57 | 2050 | 17.5 | 1.02 | 13.2
O=C1c2cccnc2-c2nc(-c3ccccn3)cc3c2c1nc1ccccc13 | 0.295 | 2.89 |  | 2.1 | 5.84 | 0.306 | 0.368 | 0.0926 | 0.804 | 3.35 | 0.936 |  | 0.0885 | 0.332 | 0.62 | 0.285 | 139 | 1.49 | 0.149 | 0.0333
CC(C)SC1SCC2C(=O)N(C)C3(CC3C)C(=O)OCC(NC(=O)c3nc4ccccc4cc3O)C(=O)NC(C)C(=O)N(C)C1C(=O)N(C)C1(CC1C)C(=O)OCC(NC(=O)c1nc3ccccc3cc1O)C(=O)NC(C)C(=O)N2C (stereo not given) | < 0.0001 | < 0.0001 |  | 0.0759 | < 0.0001 | < 0.0001 | > 100 |  |  | < 0.0001 |  |  |  | > 100 |  |  |  |  |  | 
O=C(Nc1ccccc1)O/N=C1/CCCC/C1=C\c1ccccc1 | 31.7 | 49.6 | 29.9 |  | 32 | 30.2 | 30.5 |  |  | 28.2 |  |  |  | 26.6 |  |  |  | 40.4 |  | 
COc1cccc2c(Nc3ccc(C(=O)NCCNCCO)cc3)cc(-c3ccccc3)nc12 | > 100 | > 100 | > 100 | > 100 | 93.1 | 24.9 |  | 40.9 | 23.6 | 86.6 | 56.1 | 37.7 | 34.6 | > 100 | > 100 | 33.1 | 35400 | > 100 | 5.89 | 
